For 21 molecules, EC50 results are on record in patent US20250361268A1, “NOVEL ANTI-INFLAMMATORY PEPTIDE AND USE THEREOF” (NOVACELL TECHNOLOGY INC., priority 2022, published 2025).

Peptide text beside a SMILES is read from it. Bounds are passed on as bounds.

One test addresses T1, FPR1 (Homo sapiens, UniProt P21462).
T1 sequence (P21462 1-350): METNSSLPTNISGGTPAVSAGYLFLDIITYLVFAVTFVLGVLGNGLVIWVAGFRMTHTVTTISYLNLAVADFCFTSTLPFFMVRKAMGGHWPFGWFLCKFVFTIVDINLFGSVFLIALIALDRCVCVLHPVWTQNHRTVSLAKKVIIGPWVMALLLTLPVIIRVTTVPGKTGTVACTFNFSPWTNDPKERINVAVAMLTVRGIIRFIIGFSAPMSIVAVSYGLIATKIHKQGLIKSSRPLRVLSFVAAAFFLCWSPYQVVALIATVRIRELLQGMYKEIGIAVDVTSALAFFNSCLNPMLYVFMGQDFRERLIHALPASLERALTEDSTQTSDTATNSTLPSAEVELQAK
The test can be described thus: Change in calcium activity by peptide, FPR1 activation effect. The class given is cell-based. As to conditions: calcium activity (Fura-2), graded per Table 3, read-out: EC50 for [Ca^2+] FPR1. In outline:
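Calcium flux induced by peptide addition was monitored on a FlexStation 3 plate reader. Before this, cells seeded a day earlier (3×10^5/well) took up the Fura-2 dye for 1 h at 37 °C plus 30 min dark at room temperature.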

A further test concerns the target T2, FPR2 (Homo sapiens, UniProt P25090).
T2 construct: expressed in transfected cells; host or cells: RBL cells (RBL-FPR2)
T2 sequence (P25090 1-351): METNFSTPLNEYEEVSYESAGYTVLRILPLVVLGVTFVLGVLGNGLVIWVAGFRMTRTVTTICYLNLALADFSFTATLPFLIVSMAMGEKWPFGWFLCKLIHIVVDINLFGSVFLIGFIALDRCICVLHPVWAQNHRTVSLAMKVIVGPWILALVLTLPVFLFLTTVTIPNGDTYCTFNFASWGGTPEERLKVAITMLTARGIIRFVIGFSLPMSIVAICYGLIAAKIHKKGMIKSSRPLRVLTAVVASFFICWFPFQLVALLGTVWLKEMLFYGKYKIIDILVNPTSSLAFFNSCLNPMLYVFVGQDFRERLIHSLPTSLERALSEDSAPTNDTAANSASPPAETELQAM
Description: Change in calcium activity by peptide (Fura-2) in RBL cells overexpressing FPR2. The format is cell-based. The conditions noted are these: calcium activity (Fura-2), graded per Table 3, read-out: EC50 for [Ca^2+] FPR2. The gist of the method: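 Peptide-induced intracellular calcium change measured by Fura-2 fluorescence on a plate reader. Cells: RBL line overexpressing FPR2, dye-loaded 1 h at 37 °C then 30 min at RT in dark; peptides from 0.5 mM water/50% DMSO stocks, diluted in HBSS with 20 mM HEPES.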

The term EC50 denotes the concentration at which the effect is half-maximal.

On to `CSCC[C@H](NC(=O)[C@@H](N)CCCCN)C(=O)N[C@@H](CCCCN)C(=O)N[C@@H](Cc1ccc(O)cc1)C(=O)N[C@@H](CCCCN)C(=O)N1CCC[C@H]1C(=O)N[C@H](CCSC)C(N)=O` [Peptide 66] (HELM PEPTIDE1{K.M.K.Y.K.P.[dM].[am]}$$$$V2.0), for which the results for the EC50 at FPR1 and on FPR2 were over 10000 nM and 11 to 100 nM, respectively.
The corresponding values for `CSCC[C@H](NC(=O)[C@H](CCCCN)NC(C)=O)C(=O)N[C@@H](CCCCN)C(=O)N[C@@H](Cc1ccc(O)cc1)C(=O)N[C@@H](CCCCN)C(=O)N1CCC[C@H]1C(=O)N[C@H](CCSC)C(N)=O` [Peptide 67] (HELM PEPTIDE1{[ac].K.M.K.Y.K.P.[dM].[am]}$$$$V2.0) are over 10000 nM and under 10 nM.
The corresponding values for `CCCC(=O)N[C@@H](CCCCN)C(=O)N[C@@H](CCSC)C(=O)N[C@@H](CCCCN)C(=O)N[C@@H](Cc1ccc(O)cc1)C(=O)N[C@@H](CCCCN)C(=O)N1CCC[C@H]1C(=O)N[C@H](CCSC)C(N)=O` [Peptide 68] (HELM PEPTIDE1{[CCCC(=O)[*:2]].K.M.K.Y.K.P.[dM].[am]}$$$$V2.0) are over 10000 nM and under 10 nM.
The corresponding values for `CSCC[C@@H](NC(=O)[C@@H]1CCCN1C(=O)[C@H](CCCCN)NC(=O)[C@H](Cc1ccc(O)cc1)NC(=O)[C@H](CCCNC(=N)N)NC(=O)[C@H](Cc1c[nH]c2ccccc12)NC(=O)[C@@H](N)CCCNC(=N)N)C(N)=O` [Peptide 74] (HELM PEPTIDE1{R.W.R.Y.K.P.[dM].[am]}$$$$V2.0) are over 10000 nM and under 10 nM.
As to `CCCC(=O)N[C@@H](CCCNC(=N)N)C(=O)N[C@@H](Cc1c[nH]c2ccccc12)C(=O)N[C@@H](CCCNC(=N)N)C(=O)N[C@@H](Cc1ccc(O)cc1)C(=O)N[C@@H](CCCCN)C(=O)N1CCC[C@H]1C(=O)N[C@H](CCSC)C(N)=O` [Peptide 75] (HELM PEPTIDE1{[CCCC(=O)[*:2]].R.W.R.Y.K.P.[dM].[am]}$$$$V2.0), the values for the EC50 at FPR1 and on FPR2 were 1000 to 10000 nM and under 10 nM, respectively.
The corresponding values for `CSCC[C@@H](NC(=O)[C@@H]1CCCN1C(=O)[C@H](CCCCN)NC(=O)[C@H](Cc1ccc(O)cc1)NC(=O)[C@H](CCCNC(=N)N)NC(=O)[C@H](Cc1c[nH]c2ccccc12)NC(C)=O)C(N)=O` [Peptide 76] (HELM PEPTIDE1{[ac].W.R.Y.K.P.[dM].[am]}$$$$V2.0) are 1000 to 10000 nM and under 10 nM.
Consider `CSCC[C@@H](NC(=O)[C@H](Cc1ccc(O)cc1)NC(=O)[C@H](Cc1c[nH]c2ccccc12)NC(=O)[C@H](Cc1ccc(O)cc1)NC(=O)[C@H](CCCNC(=N)N)NC(=O)[C@H](Cc1c[nH]c2ccccc12)NC(=O)[C@@H](N)CCCNC(=N)N)C(N)=O` [Peptide 77] (HELM PEPTIDE1{R.W.R.Y.W.Y.[dM].[am]}$$$$V2.0), for which the EC50 on FPR1 is over 10000 nM; at FPR2, 11 to 100 nM.
As for `CSCC[C@@H](NC(=O)[C@H](Cc1ccc(O)cc1)NC(=O)[C@H](Cc1c[nH]c2ccccc12)NC(=O)[C@H](Cc1ccc(O)cc1)NC(=O)[C@H](CCCNC(=N)N)NC(=O)[C@H](Cc1c[nH]c2ccccc12)NC(=O)[C@H](CCCNC(=N)N)NC(C)=O)C(N)=O` [Peptide 78] (HELM PEPTIDE1{[ac].R.W.R.Y.W.Y.[dM].[am]}$$$$V2.0), the values for the EC50 at FPR1 and at FPR2 were over 10000 nM and under 10 nM, respectively.
The corresponding values for `CSCC[C@@H](NC(=O)[C@H](Cc1ccc(O)cc1)NC(=O)[C@H](Cc1c[nH]c2ccccc12)NC(=O)[C@H](Cc1ccc(O)cc1)NC(=O)[C@H](CCCNC(=N)N)NC(=O)[C@@H](N)Cc1c[nH]c2ccccc12)C(N)=O` [Peptide 79] (HELM PEPTIDE1{W.R.Y.W.Y.[dM].[am]}$$$$V2.0) are over 10000 nM and 11 to 100 nM.
The corresponding values for `CSCC[C@@H](NC(=O)[C@H](Cc1ccc(O)cc1)NC(=O)[C@H](Cc1c[nH]c2ccccc12)NC(=O)[C@H](Cc1ccc(O)cc1)NC(=O)[C@H](CCCCN)NC(=O)[C@H](Cc1c[nH]c2ccccc12)NC(=O)[C@H](CCCCN)NC(C)=O)C(N)=O` [Peptide 80] (HELM PEPTIDE1{[ac].K.W.K.Y.W.Y.[dM].[am]}$$$$V2.0) are over 10000 nM and under 10 nM.
As for `CCCC(=O)N[C@@H](CCCNC(=N)N)C(=O)N[C@@H](CCSC)C(=O)N[C@@H](CCCNC(=N)N)C(=O)N[C@@H](Cc1ccc(O)cc1)C(=O)N[C@@H](Cc1c[nH]c2ccccc12)C(=O)N[C@@H](Cc1ccc(O)cc1)C(=O)N[C@H](CCSC)C(N)=O` [Peptide 83] (HELM PEPTIDE1{[CCCC(=O)[*:2]].R.M.R.Y.W.Y.[dM].[am]}$$$$V2.0), the figures for the EC50 on FPR1 and on FPR2 were over 10000 nM and under 10 nM, respectively.
`CSCC[C@H](N)C(=O)N[C@@H](CCCNC(=N)N)C(=O)N[C@@H](Cc1ccc(O)cc1)C(=O)N[C@@H](Cc1c[nH]c2ccccc12)C(=O)N[C@@H](Cc1ccc(O)cc1)C(=O)N[C@H](CCSC)C(N)=O` [Peptide 85] (HELM PEPTIDE1{M.R.Y.W.Y.[dM].[am]}$$$$V2.0): the half-maximal effective concentration (EC50) at FPR1 was over 10000 nM; at FPR2 it was under 10 nM.
Regarding `CSCC[C@H](NC(C)=O)C(=O)N[C@@H](CCCNC(=N)N)C(=O)N[C@@H](Cc1ccc(O)cc1)C(=O)N[C@@H](Cc1c[nH]c2ccccc12)C(=O)N[C@@H](Cc1ccc(O)cc1)C(=O)N[C@H](CCSC)C(N)=O` [Peptide 86] (HELM PEPTIDE1{[ac].M.R.Y.W.Y.[dM].[am]}$$$$V2.0), the EC50 on FPR1 is over 10000 nM; on FPR2, under 10 nM.
Take `CCCC(=O)N[C@@H](CCSC)C(=O)N[C@@H](CCCNC(=N)N)C(=O)N[C@@H](Cc1ccc(O)cc1)C(=O)N[C@@H](Cc1c[nH]c2ccccc12)C(=O)N[C@@H](Cc1ccc(O)cc1)C(=O)N[C@H](CCSC)C(N)=O` [Peptide 87] (HELM PEPTIDE1{[CCCC(=O)[*:2]].M.R.Y.W.Y.[dM].[am]}$$$$V2.0): the 50% effective concentration (EC50) is over 10000 nM at FPR1 and under 10 nM at FPR2.
Turning to `CCCCCCCC(=O)N[C@@H](CCSC)C(=O)N[C@@H](CCCNC(=N)N)C(=O)N[C@@H](Cc1ccc(O)cc1)C(=O)N[C@@H](Cc1c[nH]c2ccccc12)C(=O)N[C@@H](Cc1ccc(O)cc1)C(=O)N[C@H](CCSC)C(N)=O` [Peptide 88] (HELM PEPTIDE1{[CCCCCCCC(=O)[*:2]].M.R.Y.W.Y.[dM].[am]}$$$$V2.0), the results for the 50% effective concentration (EC50) on FPR1 and on FPR2 were over 10000 nM and 11 to 100 nM, respectively.
The corresponding values for `CSCC[C@H](N)C(=O)N[C@@H](CCCCN)C(=O)N[C@@H](Cc1ccc(O)cc1)C(=O)N[C@@H](Cc1c[nH]c2ccccc12)C(=O)N[C@@H](Cc1ccc(O)cc1)C(=O)N[C@H](CCSC)C(N)=O` [Peptide 89] (HELM PEPTIDE1{M.K.Y.W.Y.[dM].[am]}$$$$V2.0) are over 10000 nM and under 10 nM.
In the case of `CSCC[C@H](NC(C)=O)C(=O)N[C@@H](CCCCN)C(=O)N[C@@H](Cc1ccc(O)cc1)C(=O)N[C@@H](Cc1c[nH]c2ccccc12)C(=O)N[C@@H](Cc1ccc(O)cc1)C(=O)N[C@H](CCSC)C(N)=O` [Peptide 90] (HELM PEPTIDE1{[ac].M.K.Y.W.Y.[dM].[am]}$$$$V2.0), the concentration giving a half-maximal response (EC50) on FPR1 was over 10000 nM; at FPR2, 11 to 100 nM.
As for `CCCC(=O)N[C@@H](CCSC)C(=O)N[C@@H](CCCCN)C(=O)N[C@@H](Cc1ccc(O)cc1)C(=O)N[C@@H](Cc1c[nH]c2ccccc12)C(=O)N[C@@H](Cc1ccc(O)cc1)C(=O)N[C@H](CCSC)C(N)=O` [Peptide 91] (HELM PEPTIDE1{[CCCC(=O)[*:2]].M.K.Y.W.Y.[dM].[am]}$$$$V2.0), the EC50 was over 10000 nM at FPR1 and 11 to 100 nM at FPR2.
Regarding `CSCC[C@H](NC(=O)[C@H](Cc1c[nH]cn1)NC(C)=O)C(=O)N[C@@H](CCCNC(=N)N)C(=O)N[C@@H](Cc1ccc(O)cc1)C(=O)N[C@@H](Cc1c[nH]c2ccccc12)C(=O)N[C@@H](Cc1ccc(O)cc1)C(=O)N[C@H](CCSC)C(N)=O` [Peptide 92] (HELM PEPTIDE1{[ac].H.M.R.Y.W.Y.[dM].[am]}$$$$V2.0), the values for the 50% effective concentration (EC50) on FPR1 and on FPR2 were over 10000 nM and under 10 nM, respectively.
Regarding `CCCC(=O)N[C@@H](Cc1c[nH]cn1)C(=O)N[C@@H](CCSC)C(=O)N[C@@H](CCCNC(=N)N)C(=O)N[C@@H](Cc1ccc(O)cc1)C(=O)N[C@@H](Cc1c[nH]c2ccccc12)C(=O)N[C@@H](Cc1ccc(O)cc1)C(=O)N[C@H](CCSC)C(N)=O` [Peptide 93] (HELM PEPTIDE1{[CCCC(=O)[*:2]].H.M.R.Y.W.Y.[dM].[am]}$$$$V2.0), the EC50 at FPR1 was 1000 to 10000 nM; at FPR2 it was under 10 nM.
The corresponding values for `CSCC[C@@H](NC(=O)[C@@H](NC(=O)[C@H](Cc1ccc(O)cc1)NC(=O)[C@H](Cc1ccc(O)cc1)NC(=O)[C@H](CCCNC(=N)N)NC(=O)[C@H](Cc1c[nH]c2ccccc12)NC(=O)[C@@H](N)CCCNC(=N)N)C(C)C)C(N)=O` [Peptide 94] (HELM PEPTIDE1{R.W.R.Y.Y.V.[dM].[am]}$$$$V2.0) are 1000 to 10000 nM and under 10 nM.
